{"source": "patent US5401490A", "about": "“Markers of tissue hypoxia” (priority 1989, dated 1995)", "origin": "cited, not measured here", "key": {"EMT-6 cells": {"tested_on": "EMT-6 cells", "details": "50 μM comparison, previously determined value; cited from earlier work"}, "V-79 hamster cells": {"tested_on": "V-79 hamster cells", "details": "hypoxic in vitro; cited from earlier work"}, "EMT-6 tumors": {"tested_on": "EMT-6 tumors", "details": "BALB/C mice; cited from earlier work"}, "EMT-6 murine tumor cells": {"tested_on": "EMT-6 murine tumor cells", "details": "hypoxic in vitro; cited from earlier work"}, "hypoxic cell [1]": {"tested_on": "hypoxic cell", "details": "in vitro; cited from earlier work"}, "hypoxic cell [2]": {"tested_on": "hypoxic cell", "details": "in vitro; cited from earlier work", "remark": "listed apart in the source"}, "[3]": {"details": "cited from earlier work"}}}
{"molecule": "COCC(O)Cn1ccnc1[N+](=O)[O-]", "note": "(centres unmarked) [MISO, misonidazole]", "values": [{"measurement": "sensitizer enhancement ratio (SER)", "setting": "EMT-6 cells", "result": 1.2}, {"measurement": "binding to the macromolecular fraction", "setting": "V-79 hamster cells", "result": "selectively bound to the macromolecular fraction"}, {"measurement": "binding to EMT-6 tumors in vivo", "setting": "EMT-6 tumors", "result": "selectively bound"}, {"measurement": "binding to the macromolecular fraction", "setting": "EMT-6 murine tumor cells", "result": "selectively bound to the macromolecular fraction"}]}
{"molecule": "O=[N+]([O-])c1nccn1C1OC(CI)C(O)C1O", "note": "(centres unmarked) [IAZR, (1-5'-iodo-5'deoxyribofuranosyl)-2-nitroimidazole]", "values": [{"measurement": "sensitizer enhancement ratio (SER)", "setting": "EMT-6 cells", "result": 1.6}, {"measurement": "hypoxic cell toxicity compared with MISO", "setting": "hypoxic cell [1]", "result": "greater hypoxic cell toxicity"}, {"measurement": "rates of binding compared with MISO", "setting": "hypoxic cell [2]", "result": "rates of binding than MISO"}, {"measurement": "metabolic deiodination in vivo", "setting": "[3]", "result": "subject to metabolic deiodination"}]}
